Data on 16 compounds can be found in patent US9850247B2 (Almac Discovery Limited, priority 2013, dated 2017).

pEC50, pIC50: −log10 of the molar value. Where only a bound is given, the exact number is not on record here.

One data set deals with T1, Wee-1 kinase (Homo sapiens, UniProt P30291).
T1 construct: purchased Invitrogen PV3817
Put plainly: Measurement of Wee-1 kinase activity (ADP-Glo luminescent kit). The format is biochemical. Put shortly:
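Activated Wee-1 was pre-incubated 30 min at RT with compound in 40 mM Tris-HCl, 20 mM MgCl2, 0.1 mg/mL BSA and 2 mM DTT. The reaction was started with an aliquot of 2.0 μg/mL poly(Lys,Tyr 4:1) plus 30 μM ATP and run 1 h at RT. ADP-Glo luminescence gave IC50 by non-linear fit.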

Data set [1] can be described thus: CLint estimates using human liver microsomes (Method 4). The class given is in vitro ADME. The note with it: pH 7.4, 1 μM compound, read-out: Mics - CLint (HLM CLint). Put shortly:
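Compound at 1 μM (0.1% DMSO) incubated with human liver microsomes (0.5 mg protein/mL) in 0.1 M phosphate pH 7.4 at 37 °C, started with 1 mM NADPH. Samples taken 2–50 min, quenched in methanol, measured by LC/MS/MS (MRM). Half-life and CLint derived from the slope of ln peak area versus time.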

Data set [2] has as its system phospho-cdc2 (Tyr15) in HT-29 cells. Description: Effect on phosphorylation of cdc2 at Tyr15, PathScan ELISA (Method 2). The format is cell-based. The note with it: Homo sapiens, 8 h, eight hours incubation, read-out: HT29 pCDC2 method 2. Here is the method: Method 2: Determining the Effect of Compounds on the phosphorylation of cdc2 at Tyr15
The colorectal cancer cell lines HT-29 and HCT-116 were purchased from the ATCC and routinely maintained in McCoy's Medium (Invitrogen) supplemented with 10% Foetal Calf Serum.
The cells were trypsinised from their growing vessel and counted, 100 μL of cell suspension containing 6000 cells was pipetted into black 96 well Co-star plates and incubated overnight to allow adherence to the surface at a temperature of 37° C. and an atmosphere of 5% CO2. Test compounds were formulated in DMSO and diluted in foetal calf serum supplemented medium. Incubating medium was removed by aspiration and diluted drug supplemented medium added to each well.
The plate was returned to the incubator for an additional eight hours at 37° C. and an atmosphere of 5% CO2. Post incubation, the drug supplemented medium was aspirated from each well and the cells were washed once in ice-cold phosphate buffered saline (PBS). 100 μL of cell lysis buffer (Cell Signalling Technologies #9803) containing 20 mM Tris, 150 mM NaCl, 1 mM EDTA, 1 mM EGTA, 1% Triton-X100, 2.5 mM sodium pyrophosphate, 1 mM glycerophosphate, 1 mM Na3VO4 and 1 μg/mL leupeptin was added to each well of the 96 well plate and incubated at 4° C. for 30 min. The samples on the plate were snap frozen at −80° C. until required. Immediately before the continuation of the assay, the sample plate was thawed and centrifuged at 4° C. for 10 min and the supernatant transferred to secondary tubes or 96 well plate.
Cell supernatant was mixed in a ratio of 1:1 with sample dilutent buffer and vortexed for one minute. 100 μL of diluted sample was pipetted into pre-coated plates containing a rabbit polyclonal antibody for phospho-cdc2 (Tyr15) (Cell Signalling Technologies PathScan kit #7176). The plate was sealed and incubated overnight at 4° C.
The plate seal was removed and the well contents aspirated, followed by 3×5 min washes with 200 μL of diluted wash buffer. Between each wash the plate was tapped firmly onto blotting paper to ensure the removal of all kit solution. 100 μL of kit detection antibody was added to each well and the plate re-sealed and incubated at 37° C. for 1 h. Post incubation the plate was washed and processed in a similar manner to that previously described.
100 μL of horseradish peroxidise-linked secondary antibody was added to each test well, the plate sealed and incubated for thirty minutes at 37° C. Post incubation, the plate was washed as previously stated, followed by the addition of 100 μL of 3,3′,5,5′ tetramethylbenzidine (TMB reagent). The plate was sealed and incubated at RT for 30 min.
100 μL of stop solution was added to each well and the underside of the plate wiped with a lint-free tissue, prior to spectrophotometric determination. Absorbance from each well was read at 450 nm within 30 min of the addition of the stop solution.
The percentage of phospho-cdc2 was calculated compared to DMSO control and plotted versus the concentration of inhibitor using GraphPad Prism. Data was fitted using non-linear regression analysis and IC50 values generated.
(ELISA stands for enzyme-linked immunosorbent assay.)

Data set [3] shares this test system. Put plainly: Effect on Cdc2 phosphorylation at Tyr15, Cell-Based ELISA Base Kit (Method 3). The note with it: Homo sapiens, HT-29, 8 h, eight hours incubation, normalized to total cdc2, read-out: HT29 pCDC2 method 3. The essentials: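 HT-29 cells were treated with compounds for 8 h at 37 °C, then fixed in 4% formaldehyde. Phospho-cdc2 (Tyr15) and total cdc2 were read by dual-fluorogenic cell-based ELISA at 600/450 nm. Phospho signal was normalized to total cdc2 and expressed as % of DMSO control, and EC50 came from non-linear regression.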

T1 sequence (P30291 whole entry): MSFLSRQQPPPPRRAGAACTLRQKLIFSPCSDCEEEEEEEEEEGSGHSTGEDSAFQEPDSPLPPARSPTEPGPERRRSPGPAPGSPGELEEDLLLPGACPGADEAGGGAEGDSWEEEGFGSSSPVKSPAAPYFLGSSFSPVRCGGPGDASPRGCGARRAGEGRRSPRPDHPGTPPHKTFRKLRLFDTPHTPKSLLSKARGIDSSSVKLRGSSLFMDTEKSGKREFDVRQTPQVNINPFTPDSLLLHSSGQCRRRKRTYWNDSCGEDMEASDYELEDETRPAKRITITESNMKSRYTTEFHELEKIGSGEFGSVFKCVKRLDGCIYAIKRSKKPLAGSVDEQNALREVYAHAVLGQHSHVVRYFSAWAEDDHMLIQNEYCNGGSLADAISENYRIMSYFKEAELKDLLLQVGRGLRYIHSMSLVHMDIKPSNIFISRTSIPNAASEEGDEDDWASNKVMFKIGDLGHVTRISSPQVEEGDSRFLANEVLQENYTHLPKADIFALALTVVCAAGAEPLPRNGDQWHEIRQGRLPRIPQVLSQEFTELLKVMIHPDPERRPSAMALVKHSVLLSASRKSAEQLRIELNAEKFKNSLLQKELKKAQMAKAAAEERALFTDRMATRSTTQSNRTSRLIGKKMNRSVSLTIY

For the compound `CN1c2nc(Nc3ccc4c(c3)CNCC4)ncc2C(=O)N(c2c(Cl)cccc2Cl)C1c1ccccc1` (racemic) [Example 23, (rac)-3-(2,6-Dichlorophenyl)-1-methyl-2-phenyl-7-((1,2,3,4-tetrahydroisoquinolin-7-yl)amino)-2,3-dihydropyrimido[4,5-d]pyrimidin-4(1H)-one], the pIC50 at Wee-1 kinase is at most 7.00; in data set [2], at most 6.00. Besides, the microsomal CLint at 1 μM in data set [1] is 15 to 50 µL/min/mg.

For the compound `CN1CN(c2c(Cl)cccc2Cl)C(=O)c2cnc(Nc3ccc(S(C)(=N)=O)cc3)nc21` (racemic) [Example 30, (rac)-3-(2,6-Dichlorophenyl)-1-methyl-7-((4-(S-methylsulfonimidoyl)phenyl)amino)-2,3-dihydropyrimido[4,5-d]pyrimidin-4(1H)-one], the pIC50 was 7.00 to 8.00 on Wee-1 kinase and at most 6.00 in data set [2].

Regarding `COC[C@@H]1CN(c2ccc(Nc3ncc4c(n3)N(C)CN(c3c(Cl)cccc3Cl)C4=O)cc2)CCN1` [Example 61, (S)-3-(2,6-dichlorophenyl)-7-((4-(3-(methoxymethyl)piperazin-1-yl)phenyl)amino)-1-methyl-2,3-dihydropyrimido[4,5-d]pyrimidin-4(1H)-one], the pEC50 in data set [3] was 6.00 to 7.00. Also, the pIC50 on Wee-1 kinase was 7.00 to 8.00. Besides, the microsomal CLint at 1 μM in data set [1] was at most 15 µL/min/mg.

Regarding `CN1CN(c2c(Cl)cccc2Cl)C(=O)c2cnc(Nc3ccc(N4CCN(C)C(C)(C)C4)cc3)nc21` [Example 63, 3-(2,6-dichlorophenyl)-1-methyl-7-((4-(3,3,4-trimethylpiperazin-1-yl)phenyl)amino)-2,3-dihydropyrimido[4,5-d]pyrimidin-4(1H)-one], the pEC50 in data set [3] is 6.00 to 7.00. Besides, the pIC50 at Wee-1 kinase was at least 8.00. In addition, the microsomal CLint at 1 μM in data set [1] was 15 to 50 µL/min/mg.

Turning to `CN1CCN(c2ccc(Nc3ncc4c(n3)N(C)CN(c3c(Cl)cccc3Cl)C4=O)cc2)CC1` [Example 117, 3-(2,6-dichlorophenyl)-1-methyl-7-((4-(4-methylpiperazin-1-yl)phenyl)amino)-2,3-dihydropyrimido[4,5-d]pyrimidin-4(1H)-one], in data set [3], the pEC50 is 6.00 to 7.00. For the same compound, the pIC50 on Wee-1 kinase was 7.00 to 8.00. Also, in data set [1], the microsomal CLint at 1 μM is 15 to 50 µL/min/mg.

Consider `CNCc1cc(Nc2ncc3c(n2)N(C)CN(c2c(Cl)cccc2Cl)C3=O)ccc1N(C)C` [Example 153, 3-(2,6-dichlorophenyl)-7-((4-(dimethylamino)-3-((methylamino)methyl)phenyl)amino)-1-methyl-2,3-dihydropyrimido[4,5-d]pyrimidin-4(1H)-one], for which the pEC50 in data set [3] was 6.00 to 7.00. Also, the pIC50 on Wee-1 kinase was at least 8.00. The microsomal CLint at 1 μM in data set [1] is 15 to 50 µL/min/mg.

With `CNCc1cc(Nc2ncc3c(n2)N(C)CN(c2c(Cl)cccc2Cl)C3=O)ccc1N1CCS(=O)(=O)CC1` [Example 146, 3-(2,6-dichlorophenyl)-7-((4-(1,1-dioxidothiomorpholino)-3-((methylamino)methyl)phenyl)amino)-1-methyl-2,3-dihydropyrimido[4,5-d]pyrimidin-4(1H)-one], the pEC50 in data set [3] was at most 6.00. Further, on Wee-1 kinase, the pIC50 was at least 8.00. In data set [1], the microsomal CLint at 1 μM is at most 15 µL/min/mg.

For the compound `CN(C)Cc1cc(Nc2ncc3c(n2)N(C)CN(c2c(Cl)cccc2Cl)C3=O)ccc1N1CCC(F)(F)CC1` [Example 150, 3-(2,6-dichlorophenyl)-7-((4-(4,4-difluoropiperidin-1-yl)-3-((dimethylamino)methyl)phenyl)amino)-1-methyl-2,3-dihydropyrimido[4,5-d]pyrimidin-4(1H)-one], the pEC50 in data set [3] was 6.00 to 7.00. Moreover, on Wee-1 kinase, the pIC50 was 7.00 to 8.00. In addition, the microsomal CLint at 1 μM in data set [1] is at least 50 µL/min/mg.

Consider `[2H]C([2H])([2H])N1CN(c2c(Cl)cccc2Cl)C(=O)c2cnc(Nc3ccc(N4CCN[C@H](C)C4)cc3)nc21` [Example 78, (R)-3-(2,6-dichlorophenyl)-1-d3-methyl-7-((4-(3-methylpiperazin-1-yl)phenyl)amino)-2,3-dihydropyrimido[4,5-d]pyrimidin-4(1H)-one], for which, in data set [3], the pEC50 was 6.00 to 7.00. For the same compound, at Wee-1 kinase, the pIC50 is at least 8.00. Also, the microsomal CLint at 1 μM in data set [1] is at most 15 µL/min/mg.

Take `CC(=O)N1CCN(c2ccc(Nc3ncc4c(n3)N(C)CN(c3c(Cl)cccc3Cl)C4=O)cc2CN(C)C)CC1` [Example 144, 7-((4-(4-acetylpiperazin-1-yl)-3-((dimethylamino)methyl)phenyl)amino)-3-(2,6-dichlorophenyl)-1-methyl-2,3-dihydropyrimido[4,5-d]pyrimidin-4(1H)-one]: the pEC50 in data set [3] was 6.00 to 7.00. The pIC50 on Wee-1 kinase is at least 8.00. In addition, in data set [1], the microsomal CLint at 1 μM was 15 to 50 µL/min/mg.

As for `COC[C@H]1CN(c2ccc(Nc3ncc4c(n3)N(C)CN(c3c(Cl)cccc3Cl)C4=O)cc2C(O)C(F)F)CCN1` (single isomer, unassigned) [Example 162], the pEC50 in data set [3] is 6.00 to 7.00. Further, at Wee-1 kinase, the pIC50 is at least 8.00. Moreover, the microsomal CLint at 1 μM in data set [1] is 15 to 50 µL/min/mg.

As for `CCN1CN(c2c(Cl)cccc2Cl)C(=O)c2cnc(Nc3ccc(N4C[C@@H](C)N[C@@H](C)C4)c(CO)c3)nc21` [Example 170, 3-(2,6-dichlorophenyl)-7-((4-((3S,5R)-3,5-dimethylpiperazin-1-yl)-3-(hydroxymethyl)phenyl)amino)-1-ethyl-2,3-dihydropyrimido[4,5-d]pyrimidin-4(1H)-one], the pEC50 in data set [3] is 6.00 to 7.00. The pIC50 at Wee-1 kinase was at least 8.00. Moreover, the microsomal CLint at 1 μM in data set [1] was 15 to 50 µL/min/mg.

`CN1CN(c2c(Cl)cccc2Cl)C(=O)c2cnc(Nc3ccc(N4CCNCC4)c(CNCC(F)(F)F)c3)nc21` [Example 141, 3-(2,6-dichlorophenyl)-1-methyl-7-((4-(piperazin-1-yl)-3-(((2,2,2-trifluoroethyl)amino)methyl)phenyl)amino)-2,3-dihydropyrimido[4,5-d]pyrimidin-4(1H)-one]: the pEC50 in data set [3] was at most 6.00. At Wee-1 kinase, the pIC50 was at least 8.00. Further, the microsomal CLint at 1 μM in data set [1] was at most 15 µL/min/mg.

Consider `CN1CCC(c2ccc(Nc3ncc4c(n3)N(C)CN(c3c(Cl)cccc3Cl)C4=O)cc2)CC1` [Example 95, 3-(2,6-dichlorophenyl)-1-methyl-7-((4-(1-methylpiperidin-4-yl)phenyl)amino)-2,3-dihydropyrimido[4,5-d]pyrimidin-4(1H)-one], for which the pEC50 in data set [3] was 6.00 to 7.00. Also, the pIC50 on Wee-1 kinase was at least 8.00. Moreover, in data set [1], the microsomal CLint at 1 μM was at most 15 µL/min/mg.

Regarding `CN(C)CC(=O)N1CCN(c2ccc(Nc3ncc4c(n3)N(C)CN(c3c(Cl)cccc3Cl)C4=O)cc2CO)CC1` [Example 161, 3-(2,6-dichlorophenyl)-7-((4-(4-(2-(dimethylamino)acetyl)piperazin-1-yl)-3-(hydroxymethyl)phenyl)amino)-1-methyl-2,3-dihydropyrimido[4,5-d]pyrimidin-4(1H)-one], the pEC50 in data set [3] is 6.00 to 7.00. On Wee-1 kinase, the pIC50 was at least 8.00. Moreover, the microsomal CLint at 1 μM in data set [1] is 15 to 50 µL/min/mg.

As for `C[C@@H]1CN(c2ccc(Nc3ncc4c(n3)N(C)CN(c3c(Cl)cccc3Cl)C4=O)cc2CO)CCN1` [Example 38, (R)-3-(2,6-dichlorophenyl)-7-((3-(hydroxymethyl)-4-(3-methylpiperazin-1-yl)phenyl)amino)-1-methyl-2,3-dihydropyrimido[4,5-d]pyrimidin-4(1H)-one], in data set [3], the pEC50 was 6.00 to 7.00. For the same compound, at Wee-1 kinase, the pIC50 is at least 8.00. Further, in data set [1], the microsomal CLint at 1 μM is at most 15 µL/min/mg.
